According to patent US20100130621A1, “USE OF HYDROXYTYROSOL AS ANTI-AGING AGENT” (DSM IP ASSETS B.V., priority 2007, published 2010):

How the values were obtained:
[1] = system: mitochondrial electron transport complex I; assay: Western blot of mitochondrial electron transport complex I protein in adipocytes; assay type: cell-based, murine; details: 3T3-L1 adipocytes, 48 hrs
Experimental: (§1) Murine 3T3-L1 pre-adipocytes (American Type Culture Collection) were cultured in Dulbecco's Modified Eagle's Medium (DMEM) supplemented with 10% fetal bovine serum and allowed to reach confluence. Differentiation of pre-adipocytes was initiated with 1 μM insulin, 0.25 μM dexamethasone and 0.5 mM 3-isobutyl-1-methylxanthine in DMEM, supplemented with 10% fetal bovine serum. After 48 h, the culture medium was replaced with DMEM supplemented with 10% fetal bovine serum and 1 μM insulin. The culture medium was changed every other day with DMEM containing 10% fetal bovine serum. […] After treatment, cells were washed twice with ice-cold PBS, lysed in sample buffer (62.5 mM Tris-Cl pH 6.8, 2% SDS, 5 mM DTT) at room temperature and vortexed. Cell lysates were then boiled for 5 minutes and cleared by centrifugation (13,000 rpm, 10 minutes at 4° C.). Protein concentration was determined using the Bio-Rad DC protein assay. The soluble lysates (10 μg per lane) were subjected to 10% SDS-PAGE, proteins were then transferred to nitrocellulose membranes and blocked with 5% non-fat milk/TBST for 1 h at room temperature. Membranes were incubated with primary antibodies directed against PPAR-γ (1:1000), PGC-1α (1:1000), α-tubulin (1:10 000), Complex I (1:2000), Complex II (1:2000), Complex III (1:2000) and Complex V (1:2000) in 5% milk/TBST at 4° C. overnight. After washing membranes with TBST three times, membranes were incubated with horseradish peroxidase-conjugated secondary antibody for 1 h at room temperature. Western blots were developed using ECL (Roche Manheim, Germany) and quantified by scanning densitometry.

PGC-1α = assay: Western blot analysis of PGC-1α protein level in adipocytes; assay type: cell-based, murine; details: 3T3-L1 adipocytes, 1.0 μM; bell-shape effect from 0.1 to 10.0 μM; mean±SE
Experimental: as §1, with “Membranes were incubated with primary antibodies directed against PPAR-γ (1:1000), PGC-1α (1:1000), α-tubulin (1:10 000), Complex I (1:2000), Complex II (1:2000), Complex III (1:2000) and Complex V (1:2000) in 5% milk/TBST at 4° C. overnight. After washing membranes with TBST three times, membranes were incubated with horseradish peroxidase-conjugated secondary antibody for 1 h at room temperature.” left out

skeletal muscle = details: oral administration of 1 g per day; cited from earlier work

SMILES	mitochondrial electron transport complex I protein, vs. control ([1]; 0.1 μM) [%]	mitochondrial electron transport complex I protein, vs. control ([1]; 1.0 μM) [%]	mitochondrial electron transport complex I protein, vs. control ([1]; 10.0 μM) [%]	PGC-1α protein expression (maximum), vs. control (PGC-1α) [%]	mitochondrial biogenesis in skeletal muscle (skeletal muscle)
OCCc1ccc(O)c(O)c1 [hydroxytyrosol, 3,4-dihydroxyphenylethanol]	131±16	163±31	138±21	205±52	
O=C1O[C@H]([C@@H](O)CO)C(O)=C1O [Vitamin C]					decreases mitochondrial biogenesis
